The values below come from patent publication US4361573A, “α,α-Diaryl-β-(tert-amino)-propanols and diuretic pharmaceutical compositions containing them” (Temmler AG, priority 1974, dated 1982).

By LD50 is commonly meant the dose at which mortality reaches 50%.

Like-named read-outs stand apart in the source and are kept apart here. Where only a bound is given, the exact number is not on record here.

Series [1] is described as follows: saluretic efficiency test in rats: elimination of water, sodium, chloride and potassium in 6 h urine after oral dosing. It counts as in vivo. The following applies: for Quotient Na/K / Mean percentage variation in the elimination of Chloride / Mean percentage variation in the elimination of H2O / Mean percentage variation in the elimination of Sodium / Mean percentage variation in the elimination of potassium / change in vivo at 40 µmol/kg / change in vivo at 80 µmol/kg: rats, oral; for change in vivo at 40 µmol/kg / change in vivo at 80 µmol/kg: Rattus norvegicus. The protocol: In order to test the saluretic efficiency of the compounds of the invention rats having a weight of 150 to 200 g were used. The animals were kept without food, but not without drinking water, for 15 hours before the beginning of the test. The test substances were administered to groups of four rats, of substantially equal weight, with a rigid stomach probe in a 1% methyl cellulose slime. The dose required per 100 g animal (unit dosage in μmol/kg body weight) was contained in one ml. Following the administration of the substance the rats were given 5 ml 0.9% sodium chloride solution per 100 g body weight p.o. and placed in a diuresis funnel after manually emptying the bladder. Urine was collected for 6 hours in an airconditioned chamber at 24°±1° C. and a relative air humidity of 50±5%. The diuretic effect of a particular dose was tested on at least two, but more frequently however on four to eight groups of rats. Two sodium chloride controls were also used for each test day.
At the end of the collecting periods the volumes of urine discharged per group were noted and the pH value and also the content of sodium, potassium (flame-photometrically) and chloride (measured argentometrically with the determination of the end point potentiometrically) were determined.
From the analysis results the quantities of Na^+, K^+ and Cl^- eliminated were calculated in […] body weight, and the values thus obtained compared with those of the control animals.
Means values and twice the standard deviation were calculated from the data for the sodium chloride controls, in order to determine the normal range. Then, for the values found with the test substances, the percentage variations from the average in respect of these parameters were calculated and tabulated. In this connection, with the results given in Table 1, the upper limit of the normal range, which is defined as the mean value plus twice the standard deviation, was selected as the reference quantity for the variations. In this way relevant hyper-eliminations could clearly be recognised.
In Table 2, the mean percentage variations in potassium elimination after administration of the compounds in accordance with the invention are compared with the mean value of the potassium elimination in the case of the sodium chloride controls. At the same time the […] ratio is given which provides conclusive evidence of the effective saluretic property. The larger this quotient is, then the more sodium than potassium is eliminated in proportion.

Series [2] in a line: comparison of toxicity in mice: oral LD50 by the Lichtfiel & Wilcoxon method. The format is in vivo. The following applies: observation period 7 days, 95% confidence limit in brackets. The text has this: In Table 3 the mean lethal doses for mice, administered orally (LD50 determination by the […] & WILCOXON method - J.Pharmacol. Exp. Ther. 96,98 (1949)) are compared.
The mark [3] stands for this setting: 40 μmol/kg body wt., deviation from control mean plus twice the standard deviation, 6 h urine.
Where [4] appears, read: 80 μmol/kg body wt., deviation from control mean plus twice the standard deviation, 6 h urine.
The mark [5] stands for this setting: 6 h, 40 μmol/kg body wt., relative to mean K+ elimination of the controls, read-out: Mean percentage variation in the elimination of potassium.
Setting [6] is: 6 h, 80 μmol/kg body wt., relative to mean K+ elimination of the controls, read-out: Mean percentage variation in the elimination of potassium.
Where [7] appears, read: 40 μmol/kg body wt., deviation from control mean plus twice the standard deviation, 6 h urine, read-out: Mean percentage variation in the elimination of Chloride.
Setting [8] is: 40 μmol/kg body wt., deviation from control mean plus twice the standard deviation, 6 h urine, read-out: Mean percentage variation in the elimination of H2O.
Where [9] appears, read: 40 μmol/kg body wt., deviation from control mean plus twice the standard deviation, 6 h urine, read-out: Mean percentage variation in the elimination of Sodium.
Setting [10] is: 80 μmol/kg body wt., deviation from control mean plus twice the standard deviation, 6 h urine, read-out: Mean percentage variation in the elimination of Chloride.
The mark [11] stands for this setting: 80 μmol/kg body wt., deviation from control mean plus twice the standard deviation, 6 h urine, read-out: Mean percentage variation in the elimination of H2O.
The mark [12] stands for this setting: 80 μmol/kg body wt., deviation from control mean plus twice the standard deviation, 6 h urine, read-out: Mean percentage variation in the elimination of Sodium.
The mark [13] stands for this setting: dose of 10 mol/kg body weight, average.

For “1-(2'-methoxy-3'-methyl-5'-tertiary-butylphenyl)-1-(2"-methoxy-4"-hydroxyphenyl- (or 2"-hydroxy-4"-methoxyphenyl)-2-piperidino-propan-1-ol [T 2458]”, the entries for the “Quotient Na/K” value in series [1] (40 μmol/kg body wt.) and in series [1] (80 μmol/kg body wt.) were 5.60 and 8.06, respectively. Besides, the “Mean percentage variation in the elimination of Chloride” value is 16.9% in series [1] (setting [3]) and 59.0% in series [1] (setting [4]). Moreover, the “Mean percentage variation in the elimination of H2O” value in series [1] (setting [3]) amounted to 30.9%; in series [1] (setting [4]) it was 83.8%. Besides, the “Mean percentage variation in the elimination of Sodium” value in series [1] (setting [3]) is reported as 40.4%; in series [1] (setting [4]), 84.2%. Besides, the “Mean percentage variation in the elimination of potassium” value stood at 49.0% in series [1] (40 μmol/kg body wt., relative to mean K+ elimination of the controls) and 37.7% in series [1] (80 μmol/kg body wt., relative to mean K+ elimination of the controls). The molecule further yielded an LD50 in series [2] of 3200 mg/kg.

Regarding `Nc1nc(N)c2nc(-c3ccccc3)c(N)nc2n1` [2.4.7-triamino-6-phenyl-pteridine, reference compound], the change in vivo at 40 µmol/kg in series [1] (setting [5]) was -43.9%; in series [1] (setting [7]), -11.7%; in series [1] (setting [8]) it was -1%; in series [1] (setting [9]), -4%. The change in vivo at 80 µmol/kg in series [1] (setting [6]) is -55.1%; in series [1] (setting [10]), -11.7%; in series [1] (setting [11]), -2%; in series [1] (setting [12]), -0.2%. For the same molecule, the “Quotient Na/K” value is 10.16 in series [1] (40 μmol/kg body wt.) and 13.20 in series [1] (80 μmol/kg body wt.).

In the case of `C=CCc1cc2c(cc1C(O)(c1ccc(OC)cc1)C(C)N1CCCCC1)OCO2` (stereo not drawn) [T 2378, 1-(3',4'-methylenedioxy-6'-allylphenyl)-1-(4"-methoxyphenyl)-2-piperidino-propane-1-ol], the change in vivo at 40 µmol/kg was 11.2% in series [1] (setting [5]), -5.6% in series [1] (setting [7]), 6.7% in series [1] (setting [8]) and 6.7% in series [1] (setting [9]). Also, the change in vivo at 80 µmol/kg in series [1] (setting [6]) is 32.7%; in series [1] (setting [10]) it was -20.4%; in series [1] (setting [11]), 39.6%; in series [1] (setting [12]), 45%. Further, the “Quotient Na/K” value worked out at 5.70 in series [1] (40 μmol/kg body wt.) and 6.49 in series [1] (80 μmol/kg body wt.). In addition, the LD50 in series [2] (mouse, in vivo, read-out: LD50) worked out at 1600 mg/kg.

Consider `COc1ccc(C(O)(c2cc(C(C)C)c(OC)c(C(C)C)c2)C(C)N2CCCCC2)cc1` (stereo not drawn) [T 2237, 1-(4'-methoxy-3',5'-diisopropylphenyl)-1-(4"-methoxyphenyl)-2-piperidino-propan-1-ol], for which the change in vivo at 40 µmol/kg was determined as 13.3% in series [1] (setting [5]), 24.3% in series [1] (setting [7]), 40.8% in series [1] (setting [8]) and 32.1% in series [1] (setting [9]). Further, the change in vivo at 80 µmol/kg in series [1] (setting [6]) was found to be 19.4%; in series [1] (setting [10]), 57.1%; in series [1] (setting [11]) it was 67.9%; in series [1] (setting [12]), 59.8%. For the same molecule, the “Quotient Na/K” value in series [1] (40 μmol/kg body wt.) worked out at 6.93; in series [1] (80 μmol/kg body wt.), 7.95. Besides, in series [2] (mouse, in vivo, read-out: LD50), the LD50 was more than 6400 mg/kg.

As for `Cc1c(C(O)(c2ccccc2)C(C)N2CCCCC2)cc2c(c1C)OCCC2` (stereo not drawn) [T 2129, 1-(7',8'-dimethylchromanyl-(6'))-1-phenyl-2-piperidino-propan-1-ol], the change in vivo at 40 µmol/kg in series [1] (setting [5]) was 12.3%; in series [1] (setting [7]), 12.4%; in series [1] (setting [8]), 23.9%; in series [1] (setting [9]) it was 32.6%. Moreover, the change in vivo at 80 µmol/kg was 35.7% in series [1] (setting [6]), 22% in series [1] (setting [10]), 21.3% in series [1] (setting [11]) and 19.4% in series [1] (setting [12]). Also, the “Quotient Na/K” value in series [1] (40 μmol/kg body wt.) came to 7.02; in series [1] (80 μmol/kg body wt.), 5.23. Moreover, the LD50 in series [2] (mouse, in vivo, read-out: LD50) was more than 3200 mg/kg.

In the case of `COc1c(C)cc(C(C)(C)C)cc1C(O)(c1ccccc1)C(C)N1CCCCC1` (stereo not drawn) [T 1857, 1-(2'-methoxy-3'-methyl-5'-tert-butylphenyl)-1-phenyl-2-piperidino-propan-1-ol], the change in vivo at 40 µmol/kg in series [1] (setting [5]) amounted to 30.6%; in series [1] (setting [7]) it was 32.9%; in series [1] (setting [8]), 52%; in series [1] (setting [9]), 54.8%. Further, the change in vivo at 80 µmol/kg in series [1] (setting [6]) amounted to 29.6%; in series [1] (setting [10]), 36%; in series [1] (setting [11]), 56.5%; in series [1] (setting [12]), 54.6%. The “Quotient Na/K” value in series [1] (40 μmol/kg body wt.) stood at 7.04; in series [1] (80 μmol/kg body wt.) it was 7.09. The LD50 in series [2] (mouse, in vivo, read-out: LD50) turned out to be 3820 mg/kg.

On to `NS(=O)(=O)c1cc2c(cc1Cl)NCNS2(=O)=O` [6-chloro-3.4.-dihydro-7-sulphamoyl-2H-1.2.4.-benzothiadiazine-1.1.-dioxide, reference compound], for which the “maximum hyper-elimination, chloride” value in series [1] (dose of 10 μmol/kg body weight, average) worked out at 17.3%. Also, in series [1] (setting [13]), the “maximum hyper-elimination, sodium” value is recorded as 29.6% and the “maximum hyper-elimination, water” value was 19.9%. Moreover, in series [1] (maximum effective dose, 10 μmol/kg body wt.), the “Na/K ratio of the quantities eliminated” value came to 4.86. The hyper-elimination of potassium in series [1] (maximum effective dose, 10 mol/kg body wt.) is 58.3%.

As for `COc1c(C)cc(C(O)(c2cc(C(C)C)c(OC)c(C(C)C)c2)C(C)N2CCCCC2)cc1C` (stereo not drawn) [T 2266, 1-(4'-methoxy-3',5'-diisopropylphenyl)-1-(4"-methoxy-3",5"-dimethylphenyl)-2-piperidinopropan-1-ol], the change in vivo at 40 µmol/kg was -2% in series [1] (setting [5]), -13.2% in series [1] (setting [7]), -12.9% in series [1] (setting [8]) and -7.7% in series [1] (setting [9]). In addition, the change in vivo at 80 µmol/kg turned out to be 4% in series [1] (setting [6]), 12.2% in series [1] (setting [10]), 19.7% in series [1] (setting [11]) and 19.4% in series [1] (setting [12]). Moreover, the “Quotient Na/K” value was found to be 5.59 in series [1] (40 μmol/kg body wt.) and 6.81 in series [1] (80 μmol/kg body wt.). Also, in series [2] (mouse, in vivo, read-out: LD50), the LD50 was more than 3200 mg/kg.

For the molecule `COc1ccc(C(O)(c2cc(C(C)C)c(OC)c(C(C)C)c2)C(C)N2CCCCC2)cc1OC` (stereo not drawn) [T 1882, 1-(4'-methoxy-3',5'-diisopropylphenyl)-1-(3",4"-dimethoxyphenyl)-2-piperidino-propan-1-ol], the change in vivo at 40 µmol/kg was found to be 13.3% in series [1] (setting [5]), 6.3% in series [1] (setting [7]), 17.7% in series [1] (setting [8]) and 24.4% in series [1] (setting [9]). In addition, the change in vivo at 80 µmol/kg in series [1] (setting [6]) was -12.2%; in series [1] (setting [10]), -4.4%; in series [1] (setting [11]), 7.5%; in series [1] (setting [12]) it was 9.5%. In addition, the “Quotient Na/K” value in series [1] (40 μmol/kg body wt.) was determined as 6.52; in series [1] (80 μmol/kg body wt.), 7.41. Also, in series [2] (mouse, in vivo, read-out: LD50), the LD50 amounted to 3400 mg/kg.

Consider `COc1c(C)c(C)c(C(O)(c2ccccc2)C(C)N2CCCCC2)c(C)c1C` (stereo not drawn) [T 2152, 1-(4'-methoxy-2',3',5',6'-tetramethylphenyl)-1-phenyl-2-piperidino-propane-1-ol], for which the change in vivo at 40 µmol/kg in series [1] (setting [5]) was determined as 9.2%; in series [1] (setting [7]) it was 11.6%; in series [1] (setting [8]) it was 22.9%; in series [1] (setting [9]), 22.7%. Further, the change in vivo at 80 µmol/kg in series [1] (setting [6]) was determined as 9.2%; in series [1] (setting [10]), 5.6%; in series [1] (setting [11]), 22.6%; in series [1] (setting [12]), 20.4%. The results for the “Quotient Na/K” value in series [1] (40 μmol/kg body wt.) and in series [1] (80 μmol/kg body wt.) were 6.67 and 6.55, respectively.
